# Assay results reported in patent USRE49735E1 (BRISTOL-MYERS SQUIBB COMPANY, priority 2010, dated 2023).
# Several values for one entry are separate records, joined by “and”; a condition that tells them apart may be missing. Identical values can stand only once.
# Biological target: human mGluR5A (Homo sapiens, UniProt P41594)
# Assay: mGluR5 FLIPR Assay
# Type: cell-based
# Details: positive modulator activity; HEK293 (ZF) cells with human mGluR5A and rat GLAST; Ca++ response to ~EC10 glutamate
# Chain of human mGluR5A (P41594 21-1180 isoform P41594-2): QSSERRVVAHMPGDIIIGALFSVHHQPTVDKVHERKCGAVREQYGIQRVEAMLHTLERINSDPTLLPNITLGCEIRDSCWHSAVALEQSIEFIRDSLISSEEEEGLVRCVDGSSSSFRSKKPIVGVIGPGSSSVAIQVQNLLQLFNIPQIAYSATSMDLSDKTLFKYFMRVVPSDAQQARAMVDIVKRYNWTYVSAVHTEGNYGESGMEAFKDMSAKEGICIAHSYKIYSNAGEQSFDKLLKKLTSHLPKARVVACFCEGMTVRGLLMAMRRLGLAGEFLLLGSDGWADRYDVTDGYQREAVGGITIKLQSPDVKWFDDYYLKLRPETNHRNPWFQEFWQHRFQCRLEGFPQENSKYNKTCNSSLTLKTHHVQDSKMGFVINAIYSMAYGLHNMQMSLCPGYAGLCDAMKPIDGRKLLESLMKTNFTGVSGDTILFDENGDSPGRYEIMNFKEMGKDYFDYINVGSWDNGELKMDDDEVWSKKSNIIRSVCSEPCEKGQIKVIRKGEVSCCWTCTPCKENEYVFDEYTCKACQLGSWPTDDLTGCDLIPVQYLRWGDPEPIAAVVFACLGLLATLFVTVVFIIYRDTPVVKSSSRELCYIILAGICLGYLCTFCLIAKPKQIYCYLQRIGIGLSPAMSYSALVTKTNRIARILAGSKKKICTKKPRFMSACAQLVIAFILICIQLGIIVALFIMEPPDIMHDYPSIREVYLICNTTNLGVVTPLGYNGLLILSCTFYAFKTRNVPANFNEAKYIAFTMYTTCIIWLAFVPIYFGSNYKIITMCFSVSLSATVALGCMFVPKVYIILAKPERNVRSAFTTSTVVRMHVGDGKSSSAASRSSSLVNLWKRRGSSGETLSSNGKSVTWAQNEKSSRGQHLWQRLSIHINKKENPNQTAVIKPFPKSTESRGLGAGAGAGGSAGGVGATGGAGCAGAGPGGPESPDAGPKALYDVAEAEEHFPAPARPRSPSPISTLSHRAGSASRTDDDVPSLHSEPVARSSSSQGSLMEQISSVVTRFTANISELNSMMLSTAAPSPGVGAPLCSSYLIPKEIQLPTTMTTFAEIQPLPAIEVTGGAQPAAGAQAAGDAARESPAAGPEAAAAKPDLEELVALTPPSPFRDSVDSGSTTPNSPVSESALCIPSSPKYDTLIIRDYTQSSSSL
row,SMILES,EC50
1,Cc1ccc([C@@H]2OC(=O)N[C@H]2c2cccc(C#Cc3ccccc3)c2)cc1 [Example 108],> 1 µM
2,"O=C1N[C@@H](c2cccc(C#Cc3ccccc3)c2)[C@H](c2ccccc2F)O1 [Example 110, (4S,5S)-5-(2-fluorophenyl)-4-(3-(phenylethynyl)phenyl)oxazolidin-2-one]",> 1 µM
3,"O=C1N[C@@H](c2cccc(C#Cc3ccccc3)c2)[C@H](c2ccc(F)cc2)O1 [Example 115, (4S,5S)-5-(4-fluorophenyl)-4-(3-(phenylethynyl)phenyl)oxazolidin-2-one]",> 1 µM
4,"O=C1N[C@H](c2cccc(C#Cc3ccccc3)c2)[C@@H](c2cccnc2)O1 [Example 117, (4R,5R)-4-(3-(phenylethynyl)phenyl)-5-(pyridin-3-yl)oxazolidin-2-one]",< 0.1 µM and 0.0047 µM
5,"O=C1N[C@@H](c2cccc(C#Cc3ccccc3)c2)[C@H](c2cccnc2)O1 [Example 118, (4S,5S)-4-(3-(phenylethynyl)phenyl)-5-(pyridin-3-yl)oxazolidin-2-one]",> 1 µM
6,"COc1cccc([C@H]2OC(=O)N[C@@H]2c2cccc(C#Cc3ccc(C(F)(F)F)cc3)c2)c1 [Example 119, (4R,5R)-5-(3-methoxyphenyl)-4-(3-((4-(trifluoromethyl)phenyl)ethynyl)phenyl)oxazolidin-2-one]",> 1 µM
7,"COc1cccc([C@@H]2OC(=O)N[C@H]2c2cccc(C#Cc3cc(F)cc(F)c3)c2)c1 [Example 124, (4S,5S)-4-(3-((3,5-difluorophenyl)ethynyl)phenyl)-5-(3-methoxyphenyl)oxazolidin-2-one]",> 1 µM
8,"COc1cccc([C@H]2OC(=O)N[C@@H]2c2cccc(C#Cc3ccccc3C(F)(F)F)c2)c1 [Example 125, (4R,5R)-5-(3-methoxyphenyl)-4-(3-((2-(trifluoromethyl)phenyl)ethynyl)phenyl)oxazolidin-2-one]",> 30 µM
9,"COc1cccc([C@@H]2OC(=O)N[C@H]2c2cccc(C#Cc3ccccc3C(F)(F)F)c2)c1 [Example 126, (4S,5S)-5-(3-methoxyphenyl)-4-(3-((2-(trifluoromethyl)phenyl)ethynyl)phenyl)oxazolidin-2-one]",> 30 µM
10,"COc1cccc([C@@H]2OC(=O)N[C@H]2c2cccc(C#Cc3ccc(F)cc3F)c2)c1 [Example 128, (4S,5S)-4-(3-((2,4-difluorophenyl)ethynyl)phenyl)-5-(3-methoxyphenyl)oxazolidin-2-one]",> 1 µM
11,"COc1cccc([C@H]2OC(=O)N[C@@H]2c2cccc(C#Cc3cccc(C(F)(F)F)c3)c2)c1 [Example 129, (4R,5R)-5-(3-methoxyphenyl)-4-(3-((3-(trifluoromethyl)phenyl)ethynyl)phenyl)oxazolidin-2-one]",> 1 µM
12,"COc1cccc([C@@H]2OC(=O)N[C@H]2c2cccc(C#Cc3cccc(C(F)(F)F)c3)c2)c1 [Example 130, (4S,5S)-5-(3-methoxyphenyl)-4-(3-((3-(trifluoromethyl)phenyl)ethynyl)phenyl)oxazolidin-2-one]",> 1 µM
13,"COc1cccc([C@@H]2OC(=O)N[C@H]2c2cccc(C#Cc3ccc(F)cc3)c2)c1 [Example 132, (4S,5S)-4-(3-((4-fluorophenyl)ethynyl)phenyl)-5-(3-methoxyphenyl)oxazolidin-2-one]",> 1 µM
14,"COc1cccc([C@@H]2OC(=O)N[C@H]2c2cccc(C#Cc3cccc(F)c3)c2)c1 [Example 134, (4S,5S)-4-(3-((3-fluorophenyl)ethynyl)phenyl)-5-(3-methoxyphenyl)oxazolidin-2-one]",> 1 µM
15,"O=C1N[C@H](c2cc(C#Cc3cccnc3)cnc2F)[C@@H](c2ccc(F)cc2)O1 [Example 142, (4R,5R)-4-(2-Fluoro-5-(pyridin-3-ylethynyl)pyridin-3-yl)-5-(4-fluorophenyl)oxazolidin-2-one]",< 0.1 µM and 0.0037 µM
16,"O=C1N[C@H](c2cc(C#Cc3ncccc3F)cnc2F)[C@@H](c2cccc(F)c2)O1 [Example 147, (4R,5R)-4-(2-Fluoro-5-((3-fluoropyridin-2-yl)ethynyl)pyridin-3-yl)-5-(3-fluorophenyl)oxazolidin-2-one]",> 1 µM
17,"O=C1N[C@H](c2cc(C#Cc3ccccn3)cnc2F)[C@@H](c2cccc(F)c2)O1 [Example 148, (4R,5R)-4-(2-Fluoro-5-(pyridin-2-ylethynyl)pyridin-3-yl)-5-(3-fluorophenyl)oxazolidin-2-one]",> 1 µM

# The remaining lines, values ahead:
row,EC50,SMILES
1,> 1 µM,"COc1cccc([C@H]2OC(=O)N[C@@H]2c2cccc(C#Cc3ccnc(OC)c3)c2)c1 [Example 89, (4R,5R)-5-(3-Methoxyphenyl)-4-(3-((2-methoxypyridin-4-yl)ethnyl)phenyl)oxazolidin-2-one]"
2,> 1 µM,"COc1cccc([C@H]2OC(=O)N[C@@H]2c2cccc(C#Cc3ccccc3C#N)c2)c1 [Example 90, 2-((3-((4R,5R)-5-(3-Methoxyphenyl)-2-oxooxazolidin-4-yl)phenyl)ethynyl)benzonitrile]"
3,0.1 to 1 µM,"COc1cccc([C@H]2OC(=O)N[C@@H]2c2cccc(C#Cc3ccccc3OC)c2)c1 [Example 91, (4R,5R)-5-(3-Methoxyphenyl)-4-(3-((2-methoxyphenyl)ethynyl)phenyl)oxazolidin-2-one]"
4,> 1 µM,"COc1cccc([C@H]2OC(=O)N[C@@H]2c2cccc(C#Cc3cnccc3OC)c2)c1 [Example 92, (4R,5R)-5-(3-Methoxyphenyl)-4-(3-((4-methoxypyridin-3-yl)ethynyl)phenyl)oxazolidin-2-one]"
5,> 1 µM,CNc1ncc(C#Cc2cccc([C@H]3NC(=O)O[C@@H]3c3cccc(OC)c3)c2)cn1 [Example 93]
6,> 1 µM,"CCOc1ncc(C#Cc2cccc([C@H]3NC(=O)O[C@@H]3c3cccc(OC)c3)c2)cn1 [Example 94, (4R,5R)-4-(3-((2-Ethoxypyrimidin-5-yl)ethynyl)phenyl)-5-(3-methoxyphenyl)oxazolidin-2-one]"
7,> 1 µM,"O=C1N[C@@H](c2cccc(C#Cc3ccccc3)c2)[C@@H](c2ccccc2)O1 [Example 97, (4S,5R)-5-phenyl-4-(3-(phenylethynyl)phenyl)oxazolidin-2-one]"
8,< 0.1 µM,"Cc1ccc([C@H]2OC(=O)N[C@@H]2c2cccc(C#Cc3ccccc3)c2)cc1C [Example 101, (4R,5R)-5-(3,4-dimethylphenyl)-4-(3-(phenylethynyl)phenyl)oxazolidin-2-one]"
9,< 0.1 µM,Cc1ccc([C@H]2OC(=O)N[C@@H]2c2cccc(C#Cc3ccccc3)c2)cc1 [Example 107]
10,< 0.1 µM,"O=C1N[C@H](c2cccc(C#Cc3ccccc3)c2)[C@@H](c2ccccc2F)O1 [Example 109, (4R,5R)-5-(2-fluorophenyl)-4-(3-(phenylethynyl)phenyl)oxazolidin-2-one]"
11,0.1 to 1 µM,O=C1NC(c2cccc(C#Cc3ccccc3)c2)C(c2cccc(F)c2)O1 (stereo not shown) [Example 113]
12,< 0.1 µM,"COc1cccc([C@H]2OC(=O)N[C@@H]2c2cccc(C#Cc3ccccc3F)c2)c1 [Example 121, (4R,5R)-4-(3-((2-fluorophenyl)ethynyl)phenyl)-5-(3-methoxyphenyl)oxazolidin-2-one]"
13,0.1 to 1 µM,"COc1cccc([C@H]2OC(=O)N[C@@H]2c2cccc(C#Cc3cc(F)cc(F)c3)c2)c1 [Example 123, (4R,5R)-4-(3-((3,5-difluorophenyl)ethynyl)phenyl)-5-(3-methoxyphenyl)oxazolidin-2-one]"
14,0.1 to 1 µM,"COc1cccc([C@H]2OC(=O)N[C@@H]2c2cccc(C#Cc3ccc(F)cc3F)c2)c1 [Example 127, (4R,5R)-4-(3-((2,4-difluorophenyl)ethynyl)phenyl)-5-(3-methoxyphenyl)oxazolidin-2-one]"
15,< 0.1 µM,"COc1cccc([C@H]2OC(=O)N[C@@H]2c2cccc(C#Cc3ccc(F)cc3)c2)c1 [Example 131, (4R,5R)-4-(3-((4-fluorophenyl)ethynyl)phenyl)-5-(3-methoxyphenyl)oxazolidin-2-one]"
16,< 0.1 µM,"COc1cccc([C@H]2OC(=O)N[C@@H]2c2cccc(C#Cc3cccc(F)c3)c2)c1 [Example 133, (4R,5R)-4-(3-((3-fluorophenyl)ethynyl)phenyl)-5-(3-methoxyphenyl)oxazolidin-2-one]"
17,< 0.1 µM,"O=C1N[C@H](c2cc(C#Cc3cccnc3)cnc2F)[C@@H](c2cccc(F)c2)O1 [Example 139, (4R,5R)-4-(2-Fluoro-5-(pyridin-3-ylethynyl)pyridin-3-yl)-5-(3-fluorophenyl)oxazolidin-2-one]"
18,< 0.1 µM,"O=C1N[C@H](c2cc(C#Cc3cncc(F)c3)cnc2F)[C@@H](c2cccc(F)c2)O1 [Example 140, (4R,5R)-4-(2-Fluoro-5-((5-fluoropyridin-3-yl)ethynyl)pyridin-3-yl)-5-(3-fluorophenyl)oxazolidin-2-one]"
19,< 0.1 µM,"O=C1N[C@H](c2cc(C#Cc3ccnc(F)c3)cnc2F)[C@@H](c2cccc(F)c2)O1 [Example 141, (4R,5R)-4-(2-Fluoro-5-((2-fluoropyridin-4-yl)ethynyl)pyridin-3-yl)-5-(3-fluorophenyl)oxazolidin-2-one]"
20,< 0.1 µM,"O=C1N[C@H](c2cc(C#Cc3cncc(F)c3)cnc2F)[C@@H](c2ccc(F)cc2)O1 [Example 143, (4R,5R)-4-(2-Fluoro-5-((5-fluoropyridin-3-yl)ethynyl)pyridin-3-yl)-5-(4-fluorophenyl)oxazolidin-2-one]"
21,< 0.1 µM,"O=C1N[C@H](c2cc(C#Cc3cncc(F)c3)ncc2F)[C@@H](c2ccc(F)cc2)O1 [Example 144, (4R,5R)-4-(5-Fluoro-2-((5-fluoropyridin-3-yl)ethynyl)pyridin-4-yl)-5-(4-fluorophenyl)oxazolidin-2-one]"
22,< 0.1 µM,"O=C1N[C@H](c2cc(C#Cc3cccnc3)cnc2F)[C@@H](c2ccc(C(F)(F)F)cc2)O1 [Example 145, (4R,5R)-4-(2-Fluoro-5-(pyridin-3-ylethynyl)pyridin-3-yl)-5-(4-(trifluoromethyl)phenyl)oxazolidin-2-one]"
23,< 0.1 µM,"O=C1N[C@H](c2cc(C#Cc3cccnc3)cnc2F)[C@@H](c2ccc(Cl)cc2)O1 [Example 146, (4R,5R)-5-(4-Chlorophenyl)-4-(2-fluoro-5-(pyridin-3-ylethynyl)pyridin-3-yl)oxazolidin-2-on]"
